Laboratory results published in patent publication US20240262822A1, “WDR5 INHIBITORS AND MODULATORS” (Vanderbilt University, priority 2021, published 2024).
Read-outs that look alike come from different tables or passages of the source.

Key:
WDR5 = molecular target: T1, WDR5 (Homo sapiens, UniProt P61964); test: Time Resolved-Fluorescence Energy Transfer (TR-FRET) competition assay, displacement of 10mer-Thr-FAM probe from His-tagged WDR5; assay type: binding; details: WDR5-His tag 2 nM, 10mer-Thr-FAM 150 nM, 60 minutes at room temperature
T1 construct: WDR5-His Tag (A23, residues 24-334) is expressed and purified in our lab; made in house
Procedure, shortened: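 Competitive TR-FRET using 2 nM His-tagged WDR5 (residues 24-334), 1 nM Tb-anti-His antibody and 150 nM 10mer-Thr-FAM probe; compounds in a 10-point, 5-fold series from 5 μM, ≤1% DMSO. Incubated 60 min at room temperature in PBS with 300 mM NaCl, 0.5 mM TCEP, 0.1% CHAPS, pH 7.2; 520/495 nm emission gave IC50, converted to Ki by the Wang equation.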

[1] = system: MV4:11 human cancer cell lines; test: Cellular viability / anti-proliferative activity, CellTiter-Glo, 5 day protocol; assay type: cell-based; details: 5 day incubation
Procedure: Anti-proliferative activity using MLL-harboring cell lines. MV-4-11 and K562 cells are grown in IMDM media supplemented with 10% FBS and 1% penicillin/streptomycin, Molm-13 cells are cultured in RPMI-1640 media supplemented with 10% FBS and 1% penicillin/streptomycin. Viability assays are performed by dispensing 200 cells at 7200 cells/mL into each well of an opaque 384-well plate and adding compounds at the indicated concentrations in a final volume of 32 μL and a final concentration of DMSO of 0.3% for all samples. A certain range of compound concentrations is made through a series of 2-fold dilutions starting 30 μM at the highest, total 22 dilutions. After a set incubation period, 5 day protocol, the viability of cells in each well is assessed using the CellTiter-Glo assay (Promega), read on a 96 Microplane Luminometer (Cytation 3, BioTek). Serial dilutions of each cell type are performed in all assays to generate standard curves and the final densities of cells are determined within the dynamic range of the instrument. GI50 values are calculated based on XLfit software (IDBS, Guildford, UK) with Sigmoidal Dose-Response Model. Each compound is tested in minimum of two replicates. Data are expressed as mean.

[2] = read-out: Ki for Exemplified Compounds for Inhibition of WDR5 by TR-FRET assay
[3] = Homo sapiens, MV4-11, 120 h, MV4:11 cells, read-out: GI50 for representative compounds on cellular proliferation of MV4:11 human cancer cell lines
[4] = read-out: Ki for additional WDR5 inhibitor compounds for Inhibition of WDR5 by TR-FRET assay
[5] = Homo sapiens, MV4-11, 120 h, MV4;11 cells, read-out: GI50 for additional WDR5 inhibitor compounds on cellular proliferation of MV4;11 human cancer cell lines

Structure (SMILES) | Ki (WDR5; [2]) [nM] | GI50 [1, 3] [nM] | Ki (WDR5; [4]) [nM] | GI50 [1, 5] [nM] | GI50 ([1]; MV4;11 cells, read-out: GI50 for additional WDR5 inhibitor compounds on cellular proliferation of MV4;11 human cancer cell lines) [nM]
CCOc1cc2c(N3CCc4c(cc(Cn5ccnc5)cc4-c4cn(C)nc4C(F)(F)F)C3=O)ncnc2cc1OC [Example 28, 7-((1H-Imidazol-1-yl)methyl)-2-(6-ethoxy-7-methoxyquinazolin-4-yl)-5-(1-methyl-3-(trifluoromethyl)-1H-pyrazol-4-yl)-3,4-dihydroisoquinolin-1(2H)-one] | < 0.02 | 64 | – | – | –
CNc1nc(N2CCc3c(cc(Cn4ccnc4)cc3-c3cn(C)nc3C(F)(F)F)C2=O)c2cc(OC)c(OC)cc2n1 [Example 57, 7-((1H-Imidazol-1-yl)methyl)-2-(6,7-dimethoxy-2-(methylamino)quinazolin-4-yl)-5-(1-methyl-3-(trifluoromethyl)-1H-pyrazol-4-yl)-3,4-dihydroisoquinolin-1(2H)-one] | 0.023 | 24 | – | – | –
CCOc1cc2ncnc(N3CCc4c(cc(Cn5ccnc5)cc4-c4cn(C)nc4C(F)(F)F)C3=O)c2cc1OC [Example 29, 7-((1H-Imidazol-1-yl)methyl)-2-(7-ethoxy-6-methoxyquinazolin-4-yl)-5-(1-methyl-3-(trifluoromethyl)-1H-pyrazol-4-yl)-3,4-dihydroisoquinolin-1(2H)-one] | 0.032 | 164 | – | – | –
CCc1cc(NC(=O)CC2CN(C(=O)C3CCOCC3)C2)c2nccc(N3CCc4c(cc(Cn5ccnc5)cc4-c4cn(C)nc4C(F)(F)F)C3=O)c2c1 [Compound B-233] | – | – | < 0.02 | 26 | –
CCc1cc(C(=O)NC2CN(C(=O)c3ccncc3)C2)c2nccc(N3CCc4c(cc(Cn5ccnc5)cc4-c4cn(C)nc4C(F)(F)F)C3=O)c2c1 [Compound B-242] | – | – | < 0.02 | – | 29
COc1cc2nc(C3CC3)nc(N3CCc4c(cc(Cn5ccnc5)cc4-c4cn(C)nc4C(F)(F)F)C3=O)c2cc1OC [Example 64, 7-((1H-Imidazol-1-yl)methyl)-2-(2-cyclopropyl-6,7-dimethoxyquinazolin-4-yl)-5-(1-methyl-3-(trifluoromethyl)-1H-pyrazol-4-yl)-3,4-dihydroisoquinolin-1(2H)-one] | < 0.02 | < 20 | – | – | –
COc1cc2nccc(N3CCc4c(cc(Cn5ccnc5)cc4-c4cn(C)nc4C(F)(F)F)C3=O)c2cc1OC [Example 16, 7-((1H-Imidazol-1-yl)methyl)-2-(6,7-dimethoxyquinolin-4-yl)-5-(1-methyl-3-(trifluoromethyl)-1H-pyrazol-4-yl)-3,4-dihydroisoquinolin-1(2H)-one] | < 0.02 | < 20 | – | – | –
COc1cc2c(nc1C)CCCC2N1CCc2c(cc(Cn3ccnc3)cc2-c2cn(C)nc2C(F)(F)F)C1=O (stereo not drawn) [Example 22, 7-((1H-Imidazol-1-yl)methyl)-2-(3-methoxy-2-methyl-5,6,7,8-tetrahydroquinolin-5-yl)-5-(1-methyl-3-(trifluoromethyl)-1H-pyrazol-4-yl)-3,4-dihydroisoquinolin-1(2H)-one] | < 0.02 | < 20 | – | – | –
CCc1cc2c(N3CCc4c(cc(Cn5ccnc5)cc4-c4cn(C)nc4C(F)(F)F)C3=O)ccnc2c(-c2ccncc2)n1 [Example 45, 7-((1H-Imidazol-1-yl)methyl)-2-(6-ethyl-8-(pyridin-4-yl)-1,7-naphthyridin-4-yl)-5-(1-methyl-3-(trifluoromethyl)-1H-pyrazol-4-yl)-3,4-dihydroisoquinolin-1(2H)-one] | < 0.02 | 21 | – | – | –
COc1cc(N2C[C@H]3CN(C)C[C@H]3C2)c2nc(C)cc(N3CCc4c(cc(Cn5ccnc5)cc4-c4cn(C)nc4C(F)(F)F)C3=O)c2c1 [Compound B-197] | – | – | 0.02 | < 20 | –
CCc1cc2c(N3CCc4c(cc(Cn5ccnc5)cc4-c4cn(C)nc4C(F)(F)F)C3=O)ccnc2c(OCCOC)n1 [Example 33, 7-((1H-Imidazol-1-yl)methyl)-2-(6-ethyl-8-(2-methoxyethoxy)-1,7-naphthyridin-4-yl)-5-(1-methyl-3-(trifluoromethyl)-1H-pyrazol-4-yl)-3,4-dihydroisoquinolin-1(2H)-one] | < 0.02 | < 20 | – | – | –
COc1cc(OC)c2ncnc(N3CCc4c(cc(Cn5ccnc5)cc4-c4cn(C)nc4C(F)(F)F)C3=O)c2c1 [Example 50, 7-((1H-Imidazol-1-yl)methyl)-2-(6,8-dimethoxyquinazolin-4-yl)-5-(1-methyl-3-(trifluoromethyl)-1H-pyrazol-4-yl)-3,4-dihydroisoquinolin-1(2H)-one] | 0.022 | < 20 | – | – | –
CCc1cc2c(N3CCc4c(cc(Cn5ccnc5)cc4-c4cn(C)nc4C(F)(F)F)C3=O)cc(C)nc2c(OC)n1 [Example 48, 7-((1H-Imidazol-1-yl)methyl)-2-(6-ethyl-8-methoxy-2-methyl-1,7-naphthyridin-4-yl)-5-(1-methyl-3-(trifluoromethyl)-1H-pyrazol-4-yl)-3,4-dihydroisoquinolin-1(2H)-one] | < 0.02 | < 20 | – | – | –
CCc1cc(OC)c2nncc(N3CCc4c(cc(Cn5ccnc5)cc4-c4cn(C)nc4C(F)(F)F)C3=O)c2c1 [Example 13, 7-((1H-Imidazol-1-yl)methyl)-2-(6-ethyl-8-methoxycinnolin-4-yl)-5-(1-methyl-3-(trifluoromethyl)-1H-pyrazol-4-yl)-3,4-dihydroisoquinolin-1(2H)-one] | < 0.02 | < 20 | – | – | –
CCc1cc(OC)c2nncc(N3CCc4c(cc(Cn5ccnc5C)cc4-c4cn(C)nc4C(F)(F)F)C3=O)c2c1 [Example 14, 2-(6-Ethyl-8-methoxycinnolin-4-yl)-7-((2-methyl-1H-imidazol-1-yl)methyl)-5-(1-methyl-3-(trifluoromethyl)-1H-pyrazol-4-yl)-3,4-dihydroisoquinolin-1(2H)-one] | < 0.02 | < 20 | – | – | –
CCn1nc(C)cc1-c1cc(Cn2ccnc2)cc2c1CCN(c1nc(C)nc3cc(OC)c(OC)cc13)C2=O [Example 58, 7-((1H-Imidazol-1-yl)methyl)-2-(6,7-dimethoxy-2-methylquinazolin-4-yl)-5-(1-ethyl-3-methyl-1H-pyrazol-5-yl)-3,4-dihydroisoquinolin-1(2H)-one] | 0.03 | 195 | – | – | –
COc1cc2c(N3CCc4c(cc(Cn5ccnc5)cc4-c4cn(C)nc4C(F)(F)F)C3=O)ccnc2c(OC)n1 [Example 12, 7-((1H-Imidazol-1-yl)methyl)-2-(6,8-dimethoxy-1,7-naphthyridin-4-yl)-5-(1-methyl-3-(trifluoromethyl)-1H-pyrazol-4-yl)-3,4-dihydroisoquinolin-1(2H)-one] | < 0.02 | 42 | – | – | –
CCc1cc(C(=O)NC)c2nccc(N3CCc4c(cc(Cn5ccnc5C)cc4-c4cn(C)nc4C(F)(F)F)C3=O)c2c1 [Example 5, 6-Ethyl-N-methyl-4-(7-((2-methyl-1H-imidazol-1-yl)methyl)-5-(1-methyl-3-(trifluoromethyl)-1H-pyrazol-4-yl)-1-oxo-3,4-dihydroisoquinolin-2(1H)-yl)quinoline-8-carboxamide] | < 0.02 | < 20 | – | – | –
COc1cc2c(N3CCc4c(cc(Cn5ccnc5)cc4-c4cn(C)nc4C(F)(F)F)C3=O)nc(C)nc2cc1N1CCC1 [Example 54, 7-((1H-Imidazol-1-yl)methyl)-2-(7-(azetidin-1-yl)-6-methoxy-2-methylquinazolin-4-yl)-5-(1-methyl-3-(trifluoromethyl)-1H-pyrazol-4-yl)-3,4-dihydroisoquinolin-1(2H)-one] | < 0.02 | 81 | – | – | –
CCc1cc2c(N3CCc4c(cc(Cn5ccnc5)cc4-c4cn(C)nc4C(F)(F)F)C3=O)ccnc2c(OCC(F)F)n1 [Example 39, 7-((1H-Imidazol-1-yl)methyl)-2-(8-(2,2-difluoroethoxy)-6-ethyl-1,7-naphthyridin-4-yl)-5-(1-methyl-3-(trifluoromethyl)-1H-pyrazol-4-yl)-3,4-dihydroisoquinolin-1(2H)-one] | < 0.02 | < 20 | – | – | –
COc1cc2nc(C)nc(N3CCc4c(cc(Cn5ccnc5)cc4-c4cn(C)nc4C(F)(F)F)C3=O)c2cc1OC [Example 15, 7-((1H-Imidazol-1-yl)methyl)-2-(6,7-dimethoxy-2-methylquinazolin-4-yl)-5-(1-methyl-3-(trifluoromethyl)-1H-pyrazol-4-yl)-3,4-dihydroisoquinolin-1(2H)-one] | < 0.02 | < 20 | – | – | –
